Assay results taken from patent US20150175599A1, “FAAH Inhibitors” (Ironwood Pharmaceuticals, Inc., priority 2010, published 2015).

Experiments:
FAAH = target: T1, FAAH (Homo sapiens, UniProt O00519); test: FAAH inhibition, human brain membrane homogenate assay; format: biochemical; settings: human brain homogenate; average activity; read-out: Human brain Extract FAAH IC50
T1 construct: Reactions were initiated by adding 12.5 μg of brain microsome; tissue ABS, Inc; host or cells: human brain cerebral cortex, membrane/microsome fraction pooled from 3 donors
T1 sequence (O00519 1-579): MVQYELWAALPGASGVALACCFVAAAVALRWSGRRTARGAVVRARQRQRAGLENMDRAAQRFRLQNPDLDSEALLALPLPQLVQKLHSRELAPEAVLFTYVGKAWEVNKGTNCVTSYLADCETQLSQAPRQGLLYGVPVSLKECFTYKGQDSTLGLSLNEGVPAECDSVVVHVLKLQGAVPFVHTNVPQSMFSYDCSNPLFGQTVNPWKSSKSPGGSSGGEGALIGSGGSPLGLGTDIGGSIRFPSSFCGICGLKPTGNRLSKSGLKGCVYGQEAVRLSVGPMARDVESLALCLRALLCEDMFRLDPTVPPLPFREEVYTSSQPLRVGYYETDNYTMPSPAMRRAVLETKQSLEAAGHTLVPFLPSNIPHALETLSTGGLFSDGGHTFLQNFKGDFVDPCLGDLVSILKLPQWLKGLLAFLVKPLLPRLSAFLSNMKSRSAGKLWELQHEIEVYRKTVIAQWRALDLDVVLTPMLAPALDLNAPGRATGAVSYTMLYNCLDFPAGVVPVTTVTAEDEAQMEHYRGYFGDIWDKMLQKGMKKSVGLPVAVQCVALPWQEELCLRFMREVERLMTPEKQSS

human FAAH-1 = target: T2, human FAAH-1 (Homo sapiens, UniProt O00519); test: Whole cell anandamide hydrolysis assay (HeLa clone 5c5 transfected with human FAAH-1); format: cell-based; settings: HeLa clone 5c5 expressing human FAAH-1; read-out: human FAAH whole cell IC50
T2 sequence (O00519 1-579): T1 sequence (O00519 1-579)
How it was run: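 Stable HeLa clone 5c5 expressing human FAAH-1, pre-incubated with compound 10 min at 37° C in DMEM/F12 with 15 mM HEPES pH 7.4 and 0.1% fatty-acid-free BSA. [3H]-anandamide (5 μM stock) added for 15 min; [3H]-ethanolamine separated on charcoal and counted. IC50 from curves constrained to 100% and 0%.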

Structure (SMILES)	IC50 (FAAH)	IC50 (human FAAH-1)
COc1cc(NC(=O)C(=O)c2c(C)n(Cc3ccc(Cl)cn3)c3ccc(Cl)cc23)ccn1 [Compound 63, 2-(5-chloro-1-((5-chloropyridin-2-yl)methyl)-2-methyl-1H-indol-3-yl)-N-(2-methoxypyridin-4-yl)-2-oxoacetamide]	< 100 nM	< 100 nM
COc1ccc(Cn2c(C)c(C(=O)C(=O)Nc3ccnc(OC)c3)c3cc(OC)ccc32)nc1 [Compound 43, 2-(5-methoxy-1-((5-methoxypyridin-2-yl)methyl)-2-methyl-1H-indol-3-yl)-N-(2-methoxypyridin-4-yl)-2-oxoacetamide]	100 to 1000 nM	< 100 nM
COc1cc(NC(=O)C(=O)c2c(C)n(Cc3ccc(Cl)cc3)c3ccc(C(C)=O)cc23)ccn1 [Compound 5, 2-(5-acetyl-1-(4-chlorobenzyl)-2-methyl-1H-indol-3-yl)-N-(2-methoxypyridin-4-yl)-2-oxoacetamide]	< 100 nM	< 100 nM
COc1ccc(Cn2c(C)c(C(=O)C(=O)Nc3ccnc(OC)c3)c3cc(C)ccc32)nc1 [Compound 69, 2-(1-((5-methoxypyridin-2-yl)methyl)-2,5-dimethyl-1H-indol-3-yl)-N-(2-methoxypyridin-4-yl)-2-oxoacetamide]	< 100 nM	< 100 nM
COc1ccc2c(c1)c(C(=O)C(=O)Nc1ccnc(OC)n1)c(C)n2Cc1ccc(Cl)cc1 [Compound 46, 2-(1-(4-chlorobenzyl)-5-methoxy-2-methyl-1H-indol-3-yl)-N-(2-methoxypyrimidin-4-yl)-2-oxoacetamide]	< 100 nM	< 100 nM
COc1cnc2c(c1)c(C(=O)C(=O)Nc1ccnc(OC)c1)c(C)n2Cc1ccc(Cl)cc1Cl [Compound 42, 2-(1-(2,4-dichlorobenzyl)-5-methoxy-2-methyl-1H-pyrrolo[2,3-b]pyridin-3-yl)-N-(2-methoxypyridin-4-yl)-2-oxoacetamide]	< 100 nM	< 100 nM
COc1cc(NC(=O)C(=O)c2c(C)n(Cc3ccc(Cl)cc3)c3ccc(CN(C)C)cc23)ccn1 [Compound 26, 2-(1-(4-chlorobenzyl)-5-((dimethylamino)methyl)-2-methyl-1H-indol-3-yl)-N-(2-methoxypyridin-4-yl)-2-oxoacetamide]	100 to 1000 nM	< 100 nM
COc1cnc2c(c1)c(C(=O)C(=O)Nc1ccnc(OC)c1)c(C)n2Cc1ccc(Cl)cc1 [Compound 38, 2-(1-(4-chlorobenzyl)-5-methoxy-2-methyl-1H-pyrrolo[2,3-b]pyridin-3-yl)-N-(2-methoxypyridin-4-yl)-2-oxoacetamide]	< 100 nM	< 100 nM
COc1ccc2c(c1)c(C(=O)C(=O)Nc1cc(Cl)nc(OC)c1)c(C)n2Cc1ccc(Cl)cc1 [Compound 47, N-(2-chloro-6-methoxypyridin-4-yl)-2-(1-(4-chlorobenzyl)-5-methoxy-2-methyl-1H-indol-3-yl)-2-oxoacetamide]	< 100 nM	< 100 nM
COc1cc(NC(=O)C(=O)c2c(C)n(Cc3ccc(Cl)cc3)c3cc(F)c(OC)cc23)ccn1 [Compound 72, 2-(1-(4-chlorobenzyl)-6-fluoro-5-methoxy-2-methyl-1H-indol-3-yl)-N-(2-methoxypyridin-4-yl)-2-oxoacetamide]	< 100 nM	< 100 nM
COc1ccc(Cn2c(C)c(C(=O)C(=O)Nc3ccnc(OC)c3)c3cc(OC)cnc32)nc1 [Compound 40, 2-(5-methoxy-1-((5-methoxypyridin-2-yl)methyl)-2-methyl-1H-pyrrolo[2,3-b]pyridin-3-yl)-N-(2-methoxypyridin-4-yl)-2-oxoacetamide]	< 100 nM	< 100 nM
COc1cc(NC(=O)C(=O)c2c(C)n(Cc3ccc(Cl)cc3)c3ccc(C(F)(F)F)cc23)ccn1 [Compound 21, 2-(1-(4-chlorobenzyl)-2-methyl-5-(trifluoromethyl)-1H-indol-3-yl)-N-(2-methoxypyridin-4-yl)-2-oxoacetamide]	< 100 nM	< 100 nM
COc1cc(NC(=O)C(=O)c2c(C)n(Cc3ncc(Cl)cc3Cl)c3cc(F)c(OC)cc23)ccn1 [Compound 13, 2-(1-((3,5-dichloropyridin-2-yl)methyl)-6-fluoro-5-methoxy-2-methyl-1H-indol-3-yl)-N-(2-methoxypyridin-4-yl)-2-oxoacetamide]	< 100 nM	< 100 nM
COc1ccc2c(c1)c(C(=O)C(=O)Nc1cc(OC)ncc1F)c(C)n2Cc1ccc(Cl)cc1 [Compound 54, 2-(1-(4-chlorobenzyl)-5-methoxy-2-methyl-1H-indol-3-yl)-N-(5-fluoro-2-methoxypyridin-4-yl)-2-oxoacetamide]	< 100 nM	< 100 nM
COc1cc(NC(=O)C(=O)c2c(C)n(Cc3ccc(Cl)cn3)c3cc(C)c(OC)cc23)ccn1 [Compound 95, 2-(1-((5-chloropyridin-2-yl)methyl)-5-methoxy-2,6-dimethyl-1H-indol-3-yl)-N-(2-methoxypyridin-4-yl)-2-oxoacetamide]	< 100 nM	< 100 nM
COc1cc(NC(=O)C(=O)c2c(C)n(Cc3ccc(Cl)cc3)c3cc(C)c(OC)cc23)ccn1 [Compound 74, 2-(1-(4-chlorobenzyl)-5-methoxy-2,6-dimethyl-1H-indol-3-yl)-N-(2-methoxypyridin-4-yl)-2-oxoacetamide]	< 100 nM	< 100 nM
COc1cc(NC(=O)C(=O)c2c(C)n(Cc3ccc(Cl)cc3)c3ccc(C#N)cc23)ccn1 [Compound 15, 2-(1-(4-chlorobenzyl)-5-cyano-2-methyl-1H-indol-3-yl)-N-(2-methoxypyridin-4-yl)-2-oxoacetamide]	< 100 nM	< 100 nM
COc1cc(NC(=O)C(=O)c2c(C)n(Cc3ccc(Cl)cn3)c3cc(Cl)c(OC)cc23)ccn1 [Compound 60, 2-(6-chloro-1-((5-chloropyridin-2-yl)methyl)-5-methoxy-2-methyl-1H-indol-3-yl)-N-(2-methoxypyridin-4-yl)-2-oxoacetamide]	< 100 nM	< 100 nM
COc1ccc2c(c1)c(C(=O)C(=O)Nc1ccnc(OC)c1)c(C)n2Cc1ccc(S(C)(=O)=O)cc1 [Compound 39, 2-(5-methoxy-2-methyl-1-(4-(methylsulfonyl)benzyl)-1H-indol-3-yl)-N-(2-methoxypyridin-4-yl)-2-oxoacetamide]	1000 to 10000 nM	1000 to 10000 nM
COc1ccc(Cn2c(C)c(C(=O)C(=O)Nc3ccnc(OC)c3)c3cc(OC)c(F)cc32)nc1 [Compound 32, 2-(6-fluoro-5-methoxy-1-((5-methoxypyridin-2-yl)methyl)-2-methyl-1H-indol-3-yl)-N-(2-methoxypyridin-4-yl)-2-oxoacetamide]	< 100 nM	< 100 nM
